The text below walks through data of publication PMC7566295, “Discovery of a Novel Natural Allosteric Inhibitor That Targets NDM-1 Against Escherichia coli” (Frontiers in Pharmacology, 2020).

Like-named read-outs stand apart in the source and are kept apart here.

Data set [1] deals with T1, NDM-1 (Klebsiella pneumoniae, UniProt C7C422).
T1 construct: made in house; host or cells: E. coli BL21
The experiment in a line: Enzyme inhibition assay (nitrocefin hydrolysis). The format is biochemical. The method, then:
(§1) According to the methodology of Liu et al. the enzyme and nitrocefin were mixed and incubated at 37°C for 10 min. Consequently, absorbance was measured at 492 nm in a microplate reader. The specific calculation method was obtained from the literature ([Liu et al., 2018b]).

For data set [2], the system named is NDM-1. To be noted: ref Chiou et al., 2015; read-out: IC50 for inhibiting NDM-1 in the hydrolysis of imipenem; cited from earlier work.
The subject of data set [3] is bacteria carrying carbapenemases. More on the design: method as in Chiou et al., 2015. The conditions noted are these: ref Chiou et al., 2015; cited from earlier work.
The test system of data set [4] is E. coli ZC-YN3 (producing NDM-1). The experiment in a line: MIC by broth microdilution / checkerboard. The format is cell-based. The conditions noted are these: Escherichia coli. In general terms: Broth dilution looks for growth in wells or tubes with falling amounts of substance.
The subject of data set [5] is E. coli ZC-YN3. The experiment in a line: Time-killing assay. The format is cell-based, Escherichia coli. The conditions noted are these: after 4 hours.
On the set-up of data set [6]: method as in Hecker et al., 2020. The conditions noted are these: rats; ref Hecker et al., 2020; cited from earlier work.
In data set [7] the test system is F46A-NDM-1, L65A-NDM-1, T94A-NDM-1 mutants. The experiment in a line: Enzyme inhibition assay with NDM-1 mutants. The format is biochemical, E. coli. The conditions noted are these: Figure 5E.
Description: The coding sequence of the NDM-1 gene were amplified from genomic DNA of E. coli and digested with BamHI and XhoI. Subsequently, it was cloned into pET28a to generate plasmid pET28a-NDM-1. Plasmids encoding F46A-NDM-1, L65A-NDM-1, and T94A-NDM-1 were constructed using a QuikChange site-directed mutagenesis kit. The ligation product was transformed into competent E. coli DH5α cells. All constructed strains were verified by PCR and DNA sequencing ([Ali et al., 2018]). The NDM-1 primer came from the literature ([Teng et al., 2019]), and the other primers were designed in this experiment.
as §1

Data set [8] has as its system E. coli ZC-YN3. The data set is described as follows: Growth curves. The class given is cell-based, Escherichia coli. The conditions noted are these: carnosic acid alone, Figure 2A.
The target of data set [9] is T2, F46A-NDM-1 (Klebsiella pneumoniae, UniProt C7C422, F46A). The data set is described as follows: Fluorescence-quenching assay. The conditions noted are these: F46A-NDM-1, 300 K. The class given is binding, E. coli. How it is done: (§2) The binding constant (KA) of the binding site of carnosic acid to wild type NDM-1 (WT-NDM-1), F46A-NDM-1, L65A-NDM-1, and T94A-NDM-1 was measured using a fluorescence quenching method. The binding energy was calculated according to the equation: r/Df = nK − rK. This method referred to the previous literature ([Wang J. F. et al., 2015]), using an excitation wavelength of 280 nm and an emission wavelength of 345 nm.

For data set [10], the target named is T3, L65A-NDM-1 (Klebsiella pneumoniae, UniProt C7C422, L65A). The data set is described as follows: Fluorescence-quenching assay. The format is binding, E. coli. To be noted: L65A-NDM-1, 300 K. The method, then:
as §2

For data set [11], the target named is T4, T94A-NDM-1 (Klebsiella pneumoniae, UniProt C7C422, T94A). The experiment in a line: Fluorescence-quenching assay. The format is binding, E. coli. To be noted: T94A-NDM-1, 300 K. The method, then:
as §2

Data set [12] concerns the target T5, WT-NDM-1 (Klebsiella pneumoniae, UniProt C7C422).
T5 construct: made in house; host or cells: E. coli BL21
The data set is described as follows: Fluorescence-quenching assay. The format is binding, E. coli. The conditions noted are these: WT-NDM-1, 300 K. The method, then:
as §2

For data set [13], the target named is T2, F46A-NDM-1. The experiment in a line: Enzyme reaction rate (steady-state kinetics, nitrocefin). The class given is biochemical, E. coli. The conditions noted are these: F46A treated with carnosic acid. The method, then:
(§3) The principle of the measurement is mainly by using nitrocefin as an indicator, and its color changes from yellow to red with the increase of hydrolysis. NDM-1 (250 ng/ml) was incubated with various concentrations of carnosic acid in phosphate buffered saline, and then 50 μg/m L of nitrocefin was added to the mixture ([Teng et al., 2019]). The reaction rate was determined by continuously measuring the absorbance at OD492 nm at different times ([Krupyanko, 2009]).

For data set [14], the target named is T3, L65A-NDM-1. The data set is described as above. The format is biochemical, E. coli. The conditions noted are these: L65A treated with carnosic acid. The method, then:
as §3

Data set [15] has as its target T4, T94A-NDM-1. Described as above. The conditions noted are these: T94A treated with carnosic acid. The class given is biochemical, E. coli. How it is done:
as §3

Data set [16] addresses T5, WT-NDM-1. The description is as above. To be noted: WT-NDM-1 treated with carnosic acid. The format is biochemical, E. coli. The method, then: as §3
Another data set concerns mice. The conditions noted are these: acute toxicity study, ref Wang et al., 2012; cited from earlier work.
[17] abbreviates: screening hits, Figure 1A, read-out: IC50 (converted).

T1 sequence (C7C422 29-270, looked up): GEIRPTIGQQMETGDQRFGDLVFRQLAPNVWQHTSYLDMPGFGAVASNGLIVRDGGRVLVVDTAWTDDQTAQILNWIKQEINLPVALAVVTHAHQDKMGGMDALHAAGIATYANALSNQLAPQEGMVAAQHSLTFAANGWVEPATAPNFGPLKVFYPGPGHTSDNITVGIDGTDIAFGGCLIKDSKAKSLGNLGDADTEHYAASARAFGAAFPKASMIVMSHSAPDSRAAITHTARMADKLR
T5 sequence (C7C422 29-270 limits assumed): as the sequence (C7C422 29-270, looked up) above
T3 sequence (C7C422 29-270 L65A): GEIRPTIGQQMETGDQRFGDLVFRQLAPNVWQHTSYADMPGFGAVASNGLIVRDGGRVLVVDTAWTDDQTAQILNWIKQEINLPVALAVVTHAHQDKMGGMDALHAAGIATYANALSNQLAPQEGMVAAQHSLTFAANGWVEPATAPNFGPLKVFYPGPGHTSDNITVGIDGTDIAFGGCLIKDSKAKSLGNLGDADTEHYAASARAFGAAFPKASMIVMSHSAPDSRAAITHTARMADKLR
T4 sequence (C7C422 29-270 T94A): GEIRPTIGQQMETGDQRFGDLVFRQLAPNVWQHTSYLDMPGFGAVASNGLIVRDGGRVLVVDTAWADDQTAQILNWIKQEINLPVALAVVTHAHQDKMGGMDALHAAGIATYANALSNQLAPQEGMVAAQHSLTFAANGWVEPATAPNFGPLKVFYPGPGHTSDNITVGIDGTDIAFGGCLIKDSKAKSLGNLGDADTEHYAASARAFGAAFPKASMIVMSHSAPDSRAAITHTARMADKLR
T2 sequence (C7C422 29-270 F46A): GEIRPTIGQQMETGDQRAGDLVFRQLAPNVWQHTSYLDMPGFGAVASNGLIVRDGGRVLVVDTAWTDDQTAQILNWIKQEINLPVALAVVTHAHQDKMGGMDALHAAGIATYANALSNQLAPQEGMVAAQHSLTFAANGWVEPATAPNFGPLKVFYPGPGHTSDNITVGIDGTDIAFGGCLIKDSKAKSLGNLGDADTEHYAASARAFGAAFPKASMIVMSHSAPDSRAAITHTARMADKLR

As to `O=C(/C=C/c1ccc(O)cc1)c1ccc(O)cc1O` [6'-Deoxychalcone], half-maximal inhibition against NDM-1 [1] (IC50) was put at 163 µM.

The molecule `COc1cc(O)cc2c1C(=O)C[C@@H](c1ccccc1)O2` [Alpinetin] showed an IC50 against NDM-1 [1] of 122 µM.

In the case of `C[N+](C)(C)CC(=O)O` [Betaine], the IC50 on NDM-1 [1] (setting [17]) is 355 µM.

Turning to `O=C(O)/C=C/c1ccccc1` [Cinnamic Acid], the IC50 against NDM-1 [1] was 225 µM.

With `C[C@H](CS)C(=O)N1CCC[C@@H]1C(=O)O` [D-captopril], the IC50 in the data set with NDM-1 [2] is […]. The “effect on bacteria carrying carbapenemases” value in data set [3] is “no effect”.

In the case of `C[C@H](CS)C(=O)N1CCC[C@H]1C(=O)O` [L-captopril], the 50% inhibitory concentration (IC50) in the data set on NDM-1 [2] is […]. The “effect on bacteria carrying carbapenemases” value in [3] is recorded as “no effect”.

On to `CCCCC/C=C\C/C=C\CCCCCCCC(=O)O` [Linolate], for which the half-inhibitory concentration (IC50) at NDM-1 [1] (setting [17]) is 218 µM.

`O=C1C[C@@H](c2ccc(O[C@@H]3O[C@H](CO)[C@@H](O)[C@H](O)[C@H]3O)cc2)Oc2cc(O)ccc21` [Liquiritin] showed an IC50 against NDM-1 [1] of 130 µM.

Consider `C[C@@H](O)[C@H]1C(=O)N2C(C(=O)O)=C(S[C@@H]3CN[C@H](C(=O)N(C)C)C3)[C@H](C)[C@H]12` [Meropenem, meropenem, reference compound], for which the MIC in [4] (meropenem alone, read-out: MIC of meropenem) is 16 µg/mL. Moreover, the “inhibitory effect on E. coli (time-kill)” value in the data set on E. coli ZC-YN3 [5] is given as “weakened”.

Consider `O=C(O)c1c(F)ccc2c1OB(O)[C@@H]1C[C@H]21` [QPX7728], for which the oral bioavailability result in [6] is listed as “good oral bioavailability”.

Regarding `O=c1c(-c2ccc(O[C@@H]3O[C@H](CO)[C@@H](O)[C@H](O)[C@H]3O)cc2)coc2cc(O)cc(O)c12` [Sophoricoside], on NDM-1 [1] (setting [17]), the 50% inhibitory concentration (IC50) is 152 µM.

`CC(C)c1cc2c(c(O)c1O)[C@@]1(C(=O)O)CCCC(C)(C)[C@@H]1CC2` [carnosic acid] showed an IC50 at NDM-1 [1] of 27.1 µM. In addition, the “decrease of protein activity” value at NDM-1 [1] (8 μg/ml carnosic acid) was determined as 48.56%. In addition, the “activity of the protein (remaining)” value on NDM-1 [1] (32 μg/ml carnosic acid) is 19.85%. The “effect on the activity of mutants” value in data set [7] was “no obvious effect on the activity of mutants”. Moreover, the MIC in data set [4] is over 32 µg/mL. Further, the effect on growth entry in the data set on E. coli ZC-YN3 [8] was “nor inhibitory effect on the growth of E. coli ZC-YN3”. Further, the “Binding constants K” value at F46A-NDM-1 [9] is 0.1272 mL/µg; on L65A-NDM-1 [10] it was 0.336 mL/µg; on T94A-NDM-1 [11], 0.3291 mL/µg; on WT-NDM-1 [12], 0.4564 mL/µg. For the same molecule, the “hydrolysis reaction rate (slope of absorbance at 492 nm vs time)” value worked out at 0.0225 at F46A-NDM-1 [13], 0.02164 on L65A-NDM-1 [14], 0.02277 on T94A-NDM-1 [15] and 0.00742 on WT-NDM-1 [16]. Besides, the oral lethal dose entry in the data set with mice is “greater than 7000 mg/kg”.

A word on the IC50: it is the point on the concentration scale where inhibition reaches its midpoint. The term MIC denotes the lowest concentration that inhibits growth of the organism.
